For 17 molecules, MIC and MIC80 results are on record in ChEMBL document CHEMBL4396865, “Current advances of triazole alcohols derived from fluconazole: Design, in vitro and in silico studies” (2019).

Common to all, as to format: functional
Assay [1] has as its system Cryptococcus neoformans. Briefly: Antifungal activity against Cryptococcus neoformans after 72 hrs by NCCLS protocol based method.
Assay [2] deals with Candida albicans. The assay is described as follows: Antifungal activity against Candida albicans after 24 hrs by NCCLS protocol based method.
A further assay has as its system Nannizzia gypsea. Briefly: Antifungal activity against Microsporum gypseum after 7 days by NCCLS protocol based method. The following applies: 168 h.
In assay [3] the test system is Candida tropicalis. The assay is described as follows: Antifungal activity against Candida tropicalis after 24 hrs by NCCLS protocol based method.
In a further assay the test system is Trichophyton rubrum. Briefly: Antifungal activity against Trichophyton rubrum after 7 days by NCCLS protocol based method. The conditions noted are these: 168 h.
The next assay deals with Fonsecaea compacta. Briefly: Antifungal activity against Fonsecaea compacta after 24 hrs by NCCLS protocol based method.
Assay [4] has as its system Candida parapsilosis. Briefly: Antifungal activity against Candida parapsilosis after 24 hrs by NCCLS protocol based method. The conditions noted are these: Lodderomyces parapsilosis.
Assay [5] deals with Candida tropicalis. The assay is described as follows: Antifungal activity against Candida tropicalis. The conditions noted are these: Candida tropicalis.
In assay [6] the test system is Cryptococcus neoformans. Briefly: Antifungal activity against Cryptococcus neoformans. The conditions noted are these: Cryptococcus neoformans.
In assay [7] the test system is Candida parapsilosis. The assay is described as follows: Antifungal activity against Candida parapsilosis. The conditions noted are these: Lodderomyces parapsilosis.
Assay [8] relates to Candida albicans. Briefly: Antifungal activity against Candida albicans. The conditions noted are these: Candida albicans.
The next assay deals with Pichia kudriavzevii. Briefly: Antifungal activity against Candida krusei.

Converted amounts (≈) assume the structure as drawn.

By MIC is commonly meant the smallest concentration in the dilution series that meets the test's criterion for growth inhibition. Lower therefore signals a more susceptible organism. For `Cc1ccc(OCCCCN(C)CC(O)(Cn2cncn2)c2ccc(F)cc2F)cc1` (configuration not stated), the MIC with Cryptococcus neoformans [1], against Candida albicans [2], in the assay with Nannizzia gypsea, against Candida tropicalis [3] and with Trichophyton rubrum was 1 ng/mL (≈ 2.32 nM) each time.

Take `CN(CCCCOc1ccc(Cl)cc1)CC(O)(Cn1cncn1)c1ccc(F)cc1F` (configuration not stated): the MIC against Cryptococcus neoformans [1], against Candida albicans [2], in the assay with Nannizzia gypsea, in the assay on Candida tropicalis [3] and with Trichophyton rubrum was 1 ng/mL (≈ 2.22 nM) throughout.

For the molecule `Cc1cccc(OCCCCN(C)CC(O)(Cn2cncn2)c2ccc(F)cc2F)c1` (configuration not stated), the MIC against Cryptococcus neoformans [1], in the assay on Candida albicans [2], against Nannizzia gypsea, in the assay with Candida tropicalis [3] and against Trichophyton rubrum was 1 ng/mL (≈ 2.32 nM) each time.

`CN(CCCCOc1cccc([N+](=O)[O-])c1)CC(O)(Cn1cncn1)c1ccc(F)cc1F` (configuration not stated): the minimum inhibitory concentration (MIC) in the assay on Cryptococcus neoformans [1], in the assay on Candida albicans [2], against Nannizzia gypsea, with Candida tropicalis [3] and against Trichophyton rubrum was 1 to 16 ng/mL (≈ 2.17 to 34.7 nM) each time.

As to `CN(CCCCOc1ccccc1[N+](=O)[O-])CC(O)(Cn1cncn1)c1ccc(F)cc1F` (configuration not stated), the minimal inhibitory concentration (MIC) against Cryptococcus neoformans [1], in the assay on Candida albicans [2], against Nannizzia gypsea, in the assay with Candida tropicalis [3] and in the assay on Trichophyton rubrum was 1 to 16 ng/mL (≈ 2.17 to 34.7 nM) throughout.

Turning to `CN(CCCCOc1ccc([N+](=O)[O-])cc1)CC(O)(Cn1cncn1)c1ccc(F)cc1F` (configuration not stated), the MIC with Cryptococcus neoformans [1], against Candida albicans [2], against Nannizzia gypsea, in the assay with Candida tropicalis [3] and with Trichophyton rubrum was 1 ng/mL (≈ 2.17 nM) throughout.

Regarding `Cc1ccccc1OCCCN(C)CC(O)(Cn1cncn1)c1ccc(F)cc1F` (configuration not stated), the MIC in the assay with Cryptococcus neoformans [1], with Candida albicans [2], with Nannizzia gypsea, against Candida tropicalis [3] and with Trichophyton rubrum was 1 to 16 ng/mL (≈ 2.4 to 38.4 nM) each time.

The term MIC80 denotes an inhibitory concentration at the 80% level, which refers to growth in some studies and to a panel of isolates in others. Read a high MIC80 as weaker potency. For `CCCCCCc1ccc(C(=O)OC2CCN(CC(O)(Cn3cncn3)c3ccc(F)cc3F)CC2)cc1` (configuration not stated), the MIC80 against Cryptococcus neoformans [1], in the assay with Fonsecaea compacta, against Candida albicans [2], against Candida parapsilosis [4], in the assay on Candida tropicalis [3] and with Trichophyton rubrum was 3.9 to 62.5 ng/mL (≈ 7.41 to 119 nM) each time.

Regarding `CN(CC(=O)Nc1ccc(Cl)cc1)CC(O)(Cn1cncn1)c1ccc(F)cc1F` (configuration not stated), the MIC80 against Candida tropicalis [5] is 250 to 1000 ng/mL (≈ 574 to 2290 nM); with Cryptococcus neoformans [6], 15.6 ng/mL (≈ 35.8 nM); in the assay on Candida parapsilosis [7], 250 to 1000 ng/mL (≈ 574 to 2290 nM); with Candida albicans [8], 15.6 ng/mL (≈ 35.8 nM); in the assay with Pichia kudriavzevii it was 250 to 1000 ng/mL (≈ 574 to 2290 nM).

As to `CN(CC(=O)Nc1ccc(Cl)c(Cl)c1)CC(O)(Cn1cncn1)c1ccc(F)cc1F` (configuration not stated), the MIC80 in the assay on Candida tropicalis [5] is 250 to 1000 ng/mL (≈ 532 to 2130 nM); in the assay on Cryptococcus neoformans [6] it was 15.6 ng/mL (≈ 33.2 nM); against Candida parapsilosis [7], 250 to 1000 ng/mL (≈ 532 to 2130 nM); in the assay on Candida albicans [8], 15.6 ng/mL (≈ 33.2 nM); with Pichia kudriavzevii, 250 to 1000 ng/mL (≈ 532 to 2130 nM).

With `CC(C)(C)c1ccc(C(=O)OC2CCN(CC(O)(Cn3cncn3)c3ccc(F)cc3F)CC2)cc1` (configuration not stated), the MIC80 with Cryptococcus neoformans [1], against Fonsecaea compacta, with Candida albicans [2], against Candida parapsilosis [4], in the assay on Candida tropicalis [3] and in the assay with Trichophyton rubrum was 3.9 to 62.5 ng/mL (≈ 7.82 to 125 nM) each time.

As to `CN(CCCOc1ccc(C(C)(C)C)cc1)CC(O)(Cn1cncn1)c1ccc(F)cc1F` (configuration not stated), the MIC against Cryptococcus neoformans [1], in the assay with Candida albicans [2], in the assay with Nannizzia gypsea, against Candida tropicalis [3] and in the assay with Trichophyton rubrum was 1 to 16 ng/mL (≈ 2.18 to 34.9 nM) each time.

As to `CN(CCCOc1ccc([N+](=O)[O-])cc1)CC(O)(Cn1cncn1)c1ccc(F)cc1F` (configuration not stated), the minimum inhibitory concentration (MIC) with Cryptococcus neoformans [1], against Candida albicans [2], against Nannizzia gypsea, against Candida tropicalis [3] and in the assay with Trichophyton rubrum was 1 ng/mL (≈ 2.23 nM) each time.

For the molecule `COc1ccc(OCCCN(C)CC(O)(Cn2cncn2)c2ccc(F)cc2F)cc1` (configuration not stated), the MIC with Cryptococcus neoformans [1], against Candida albicans [2], with Nannizzia gypsea, with Candida tropicalis [3] and in the assay on Trichophyton rubrum was 1 to 16 ng/mL (≈ 2.31 to 37 nM) in each case.

For the molecule `CN(CC(=O)Nc1ccccc1)CC(O)(Cn1cncn1)c1ccc(F)cc1F` (configuration not stated), the MIC80 was 250 to 1000 ng/mL (≈ 623 to 2490 nM) with Candida tropicalis [5]; 15.6 ng/mL (≈ 38.9 nM) in the assay on Cryptococcus neoformans [6]; 250 to 1000 ng/mL (≈ 623 to 2490 nM) in the assay with Candida parapsilosis [7]; 15.6 ng/mL (≈ 38.9 nM) in the assay on Candida albicans [8]; 250 to 1000 ng/mL (≈ 623 to 2490 nM) against Pichia kudriavzevii.

In the case of `Cc1cc(C)cc(NC(=O)CN(C)CC(O)(Cn2cncn2)c2ccc(F)cc2F)c1` (configuration not stated), the MIC80 against Candida tropicalis [5] is 250 to 1000 ng/mL (≈ 582 to 2330 nM); in the assay with Cryptococcus neoformans [6] it was 15.6 ng/mL (≈ 36.3 nM); against Candida parapsilosis [7] it was 250 to 1000 ng/mL (≈ 582 to 2330 nM); against Candida albicans [8], 15.6 ng/mL (≈ 36.3 nM); against Pichia kudriavzevii it was 250 to 1000 ng/mL (≈ 582 to 2330 nM).

On to `CN(CCCOc1ccc(F)cc1)CC(O)(Cn1cncn1)c1ccc(F)cc1F` (configuration not stated), for which the MIC against Cryptococcus neoformans [1], in the assay on Candida albicans [2], with Nannizzia gypsea, with Candida tropicalis [3] and in the assay with Trichophyton rubrum was 1 to 16 ng/mL (≈ 2.38 to 38.1 nM) in each case.
